Experimental data as given in patent publication US12162878B2 (HINOVA PHARMACEUTICALS INC., priority 2018, dated 2024).

Key:
[1] = molecular target: BRD2(1,2) (Homo sapiens (Human), UniProt P25440); experiment: AlphaScreen binding of compounds on BRD2 (D1+D2); conditions: read-out: IC50 against BRD2(1,2)
Excerpt: (§1) Homogeneous time-resolved fluorescence technology (HTRF) was used to determine the binding effect of compounds on BRD4 (D1+D2) and BRDT (D1) proteins, as well as AlphaScreen method was used to detect the binding effect of compounds on BRD2 (D1+D2) and BRD3 (D1+D2) proteins.
(§2) The compounds were screened in vitro, and each compound was serially diluted to 10 concentrations. Four proteins BRD4 (D1+D2), BRDT (D1), BRD2 (D1+D2) and BRD3 (D1+D2) were chosen to determine the IC50 values of compounds (see Table 1).
(§3) 4. Compound treatment: The test compound was dissolved in dimethyl sulfoxide (DMSO), and the storage concentration was 10 mM.
(§4) 6. AlphaScreen Detection Procedures:
(§5) 1) Preparing One-Fold Concentration of Detection Buffer
(§6) One-fold concentration of detection buffer was prepared (Improved HEPES buffer)
(§7) 2) Gradient Dilution of Compounds
(§8) Echo automatic sampler was used to transfer the compound to the detection plate for gradient dilution, so that the final concentration of dimethyl sulfoxide was 0.1%.
(§9) 3) Preparation of Protein Solution
(§10) The protein was dissolved in one-fold concentration of detection buffer.
(§11) 4) Preparation of Substrate Solution
(§12) The peptide was dissolved in one-fold concentration of detection buffer to prepare the substrate solution.
(§13) 5) 5 μL protein solution was transferred to the detection plate, and one-fold concentration of detection buffer (5 μL) was placed in the negative control wells.
(§14) 6) The plate was incubated for 15 min at room temperature.
(§15) 7) 5 μL substrate solution was added to each well to start the reaction.
(§16) 8) The plate was incubated for additional 60 min at room temperature.
(§17) 9) Preparation of acceptor solution and donor solution in one-fold concentration of assay buffer Acceptor solution (15 μL) and donor solution (15 μL) were respectively added, and then incubated at room temperature for 60 min and protected against exposure to light.
(§18) 10) The endpoint was read in EnSpire and Alpha mode.
(§19) The experimental data were recorded in an Excel file and equation (1) was used to get the inhibition rate. Inh%=(Max−Signal)/(Max−Min)*100 Equation (1):
(§20) The obtained data were input into GraphPad software, and equation (2) was used to obtain the IC50 value. Y=Bottom+(Top−Bottom)/(1+10^((Log IC50−X)*Hill Slope)) Formula (2): […]
(§21) Wherein, Y axis was the inhibition rate, and the X axis was the compound concentration.

[2] = molecular target: BRD4(1,2) (Homo sapiens (Human), UniProt O60885); experiment: HTRF binding of compounds on BRD4 (D1+D2); conditions: read-out: IC50 against BRD4(1,2)
Excerpt: as §1, §2, §3
(§22) 5. Steps for Homogeneous Time-Resolved Fluorescence Detection:
(§23) 1) According to the arrangement of the detection plate, all compounds were diluted in Echo plate.
(§24) The final dilution concentration of DMSO is 0.1%.
(§25) 2) The compound or DMSO was transferred to a 384-well detection plate with the Echo automatic sampler.
(§26) 3) Two-fold concentration of the mixture of protein and peptide was added to the detection plate.
(§27) 4) Two-fold concentration of mixed detection solution was added to the test plate, and shaken for 30 s.
(§28) 5) Incubating for 2 h at room temperature.
(§29) 6) Fluorescence signal was read on Envision multi-function microplate reader (excitation light wavelength being 340 nm, and emission light wavelength being 615 nm and 665 nm).
(§30) The experimental data were recorded in an Excel file, and equation (1) was used to obtain the inhibition rate. Inh%=(Max−Signal)/(Max−Min)*100 Equation (1):
(§31) The obtained data was recorded in GraphPad software, and equation (2) was used to provide the IC50 values. Y=Bottom+(Top−Bottom)/(1+10^((Log IC50−X)*Hill Slope)) Equation (2): […]
(§32) Y axis was the inhibition rate, and X axis was the compound concentration.

[3] = molecular target: BRDT(D1) (Homo sapiens (Human), UniProt Q58F21); experiment: HTRF binding of compounds on BRDT (D1); conditions: read-out: IC50 against BRDT(D1)
Excerpt: as §1, §2, §3, §22, §23, §24, §25, §26, §27, §28, §29, §30, §31, §32

[4] = molecular target: BRD3(1,2) (Homo sapiens (Human), UniProt Q15059); experiment: AlphaScreen binding of compounds on BRD3 (D1+D2); conditions: read-out: IC50 against BRD3(1,2)
BRD3(1,2), sequence (Q15059 29-417): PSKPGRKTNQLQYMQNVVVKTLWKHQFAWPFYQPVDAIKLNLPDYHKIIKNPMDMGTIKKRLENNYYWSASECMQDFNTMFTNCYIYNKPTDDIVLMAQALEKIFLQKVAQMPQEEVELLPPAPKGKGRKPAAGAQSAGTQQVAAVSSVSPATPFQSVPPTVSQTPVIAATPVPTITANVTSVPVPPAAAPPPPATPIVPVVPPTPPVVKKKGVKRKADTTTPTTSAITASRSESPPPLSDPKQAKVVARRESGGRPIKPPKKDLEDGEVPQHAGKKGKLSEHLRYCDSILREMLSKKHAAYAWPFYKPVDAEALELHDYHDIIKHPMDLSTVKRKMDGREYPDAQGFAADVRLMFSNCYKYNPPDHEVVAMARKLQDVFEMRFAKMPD
Excerpt: as §1, §2, §3, §4, §5, §6, §7, §8, §9, §10, §11, §12, §13, §14, §15, §16, §17, §18, §19, §20, §21

[5] = tested on: CWR22RV1 cells; experiment: Inhibition of proliferation of CWR22RV1 cells (CCK-8); format: cell-based, human; conditions: 6 days
Outline: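 Cells seeded at 1500/well, cultured overnight, then exposed to compounds in 3-fold dilutions (9 concentrations from 10 μM top final, 0.1% DMSO) for 6 days at 37 °C. Viability read by CCK-8 absorbance at 450 nm after 2.5 h; IC50 from dose-response inhibition fit.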

BRD2(1,2), sequence (P25440 65-459): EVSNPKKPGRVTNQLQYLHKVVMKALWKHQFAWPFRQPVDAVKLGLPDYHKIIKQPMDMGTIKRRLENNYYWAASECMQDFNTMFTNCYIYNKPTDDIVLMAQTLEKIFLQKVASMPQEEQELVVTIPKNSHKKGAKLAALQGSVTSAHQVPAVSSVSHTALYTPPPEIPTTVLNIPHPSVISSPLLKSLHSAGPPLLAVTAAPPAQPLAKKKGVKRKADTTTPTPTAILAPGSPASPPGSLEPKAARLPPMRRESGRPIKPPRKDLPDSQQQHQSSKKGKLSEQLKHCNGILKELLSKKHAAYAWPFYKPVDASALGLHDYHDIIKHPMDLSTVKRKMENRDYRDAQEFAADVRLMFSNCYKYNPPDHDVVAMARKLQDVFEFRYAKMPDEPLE

SMILES	IC50 [1] [nM]	IC50 [2] [nM]	IC50 [3] [nM]	IC50 [4] [nM]	IC50 ([5]; Homo sapiens, CWR22Rv1, 144 h) [nM]	IC50 [5] [nM]
[2H]C([2H])([2H])n1cc(-c2cc(S(=O)(=O)N3CC[C@@H](O)C3)ccc2N2CCC3(CC2)CC3(F)F)c2cc[nH]c2c1=O [Compound 240, (R)-4-(2-(1,1-difluoro-6-aza-spiro[2.5]octan-6-yl)-5-((3-hydroxylpyrrolidin-1-yl)sulfonyl)phenyl)-6-trideuteromethyl-1H-pyrrolo[2,3-c]pyridin-7(6H)-one]	1.2	6.4	21	4.3	4.8	–
[2H]C([2H])([2H])n1cc(-c2cc(S(=O)(=O)N3CC[C@H](O)C3)ccc2N2CCC3(CC2)CC3(F)F)c2cc[nH]c2c1=O [Compound 241, (S)-4-(2-(1,1-difluoro-6-aza-spiro[2.5]octan-6-yl)-5-((3-hydroxylpyrrolidin-1-yl)sulfonyl)phenyl)-6-trideuteromethyl-1H-pyrrolo[2,3-c]pyridin-7(6H)-one]	1.2	5.8	17	4.1	1.7	–
[2H]C([2H])([2H])n1cc(-c2cc(S(=O)(=O)N3CC[C@@H](O)C3)cnc2N2CCC3(CC2)CC3)c2cc[nH]c2c1=O [Compound 242]	1.5	9.9	19	5.3	2.2	–
[2H]C([2H])([2H])n1cc(-c2cc(S(=O)(=O)N3CC[C@H](O)C3)cnc2N2CCC3(CC2)CC3)c2cc[nH]c2c1=O [Compound 243]	1.4	8.9	19	5.3	1.3	–
[2H]C([2H])([2H])n1cc(-c2cc(S(=O)(=O)CC)ccc2N2CCC3(CC2)CC3(F)F)c2cc[nH]c2c1=O [Compound 250, 4-(2-(1,1-difluoro-6-aza-spiro[2.5]octan-6-yl)-5-(ethylsulfonyl)phenyl)-6-trideuteromethyl-1H-pyrrolo[2,3-c]pyridin-7(6H)-one]	1.5	4.3	15	4.1	–	120
